Test results taken from patent US10722496B2, “2-iminobiotin for use in the treatment of brain cell injury” (Neurophyxia B.V., priority 2015, dated 2020).

Assays:
4VO rat model = assay: Morris water maze after four-vessel occlusion (4VO); assay type: in vivo; conditions: for memory test, time spent in the right quadrant on day 32: 12 and 24 hours, mean±SD
Description: The rats were anesthetized using ketamine (90 mg/kg) and xylazine sodium ([…]), as described earlier (Meilin et al., 2014). The first cervical vertebrata was exposed and the vertebral arteries were permanently occluded by electrocauterization. The common carotid arteries were isolated through a ventral midline neck incision and lifted using a 4.0 silk suture ligature, placed around them.
Twenty-four hours post vertebral arterial occlusion, the animals were reanesthetized using isoflurane. The common carotid arteries were exposed and occluded using microaneurysm clips for 15 minutes. After removing the clips reperfusion occurred. The skin of the incision at the neck was sutured using 4-0 silk suture. During the operation animal's core temperature was monitored using a rectal probe (Model 400; YSI Inc., Yellow Springs, Ohio, USA) connected to a thermometer (Model 8402-00; Cole-Parmer Instrument Co. Ltd, London, UK). The ischemic insult was initiated when a rectal temperature of 37-38° C. was achieved, and this temperature was maintained throughout the procedure using a heating mattress.
During the acclimatization period rats were randomly assigned to experimental groups. The animals were subjected to 4VO per cage or one rat per cage was subjected to HI. Rats received either vehicle (normal saline at pH 3.8-4.0) or 2-IB (1.1 mg/kg, 3.3 mg/kg, 10 mg/kg and 30 mg/kg dissolved in 5 ml/kg normal saline at pH 3.8-4.0). Each dosing group was kept in separate cages to avoid cross-contamination by consuming stools during the study period. The experimental groups were as follows.
Tests were performed during day-time. Rats were introduced to a standardized 1.2 m-diameter pool filled with water for 120 seconds or until they located a platform hidden 1 cm below the water surface. Several visual cues were provided within the room in which the pool was located to allow rats to spatially navigate the water maze. […] Rats were allowed two attempts to find the hidden platform, and this learning test was performed over a period of 4 days (days 28-31). The memory test was performed on the fifth day (day 32), at which time the hidden platform was removed, and rats were placed in the pool for a single 60-second trial. The amount of time that each rat spent in the quadrant, where the hidden platform had previously been located, was recorded by an observer who was blinded to the experimental groups.
The Morris water maze was used to evaluate how well the rats remembered the location of the hidden platform, and whether they had learned to navigate towards the appropriate quadrant. The time that the rat spent in the right quadrant was measured. This was considered the primary outcome.
During the learning test the time to find a hidden platform in the water was calculated. Also the area under the curve (AUC) of the subsequent learning tests was calculated. These parameters were considered secondary outcomes.

IMR-32 cells = assay: LDH cytotoxicity assay, hypoxia-induced cell damage; assay type: cell-based, human
Description: In vitro hypoxia was induced in the cell cultures by using our recently described system with minor modifications (Huang et al., 2013b; Weber et al., 2015; Zitta et al., 2010). Enzyme stock solutions (100×) of catalase and glucose oxidase (both from Sigma-Aldrich) were prepared in cell culture medium (DMEM/F12, 1% FCS; final concentration: 120 U/ml and 2 U/ml respectively; Sigma-Aldrich) leading to a decrease of partial pressure of oxygen (pO2) below 10 mmHg within 5 minutes. Hypoxic conditions were confirmed by using a tissue oxygen pressure monitor (LICOX® CMP Oxygen Catheter; Integra, Plainsboro, USA). After 7 hours of hypoxia, the cells were washed twice with PBS (PAA) and fresh normoxic medium supplemented with solvent (citrate buffer 1%) or 2-IB (10, 30, 50, 100 and 300 ng/mL) was added to the cells. Investigations of cell damage, metabolic activity, ROS, hydrogen peroxide, nitrite/nitrate production, erkl/2, akt and stat5 phosphorylation as well as cell stress protein expression were performed with cell culture media or cell protein (FIG. 1).
The release of LDH from cultured cells into the medium was quantified by using a colorimetric cytotoxicity detection kit (Roche, Mannheim, Germany). Samples were prepared based on the manufacturer's protocol. Briefly, culture media were collected 24 hours after hypoxia and stored at −20° C. For evaluation of total LDH, cells were lysed with 2% TRITON® X-100 (Carl Roth, Karlsruhe, Germany) for 15 minutes at 37° C. LDH activity of the samples was measured in 96-well plates at 490 nm using an ELISA reader (Tecan, Crailsheim, Austria) in combination with the Magellan software v1.1.

IMR-32 cell cultures [1] = assay: ROS fluorometric assay after hypoxia under mild hypothermia; assay type: cell-based, human
Description: (§1) In-vitro hypoxia was induced for 7 hours using IMR-32 cell cultures. After the hypoxic insult, cultures were subjected to 25 hours of mild hypothermia (33.5° C.) and were incubated with or without 2-IB (10, 30, 50, 100 and 300 ng/ml). Cell morphology was evaluated by brightfield microscopy and cell damage was analyzed by LDH assays. Production of reactive oxygen species (ROS) was measured using fluorometric assays. Western blotting for PARP and phosphorylated as well as unphosphorylated akt and erkl/2 was performed.

[2] = test system: piglet model of perinatal global hypoxia-ischemia (HI); conditions: Peeters-Scholte et al., 2002; cited from earlier work
IMR-32 cell cultures [3] = assay: LDH assay after hypoxia under mild hypothermia; assay type: cell-based, human; conditions: 30 ng/ml 2-IB post-hypoxic, 25 hours mild hypothermia (33.5° C.)
Description: as §1

[4] = Phase I clinical study pharmacokinetics, pulse i.v. infusion in healthy male subjects; assay type: in vivo, human; conditions: for mean AUC 4 hours: 6 pulses of 0.6 mg/kg in a 24-hour period
Source text: The pharmacokinetics of 2-IB have been investigated in a Phase I clinical study in which the safety and tolerability of single and multiple doses of 2-IB pulse i.v. infusion in healthy male subjects were investigated. The study was a randomized, double-blind, placebo-controlled, dose escalation study with 3 groups of 6 healthy male subjects receiving a single i.v. infusion or pulsed i.v. infusions of 2-IB or placebo in 3 periods. Treatments were randomized such that each subject received 2 out of 3 foreseen dose levels of 2-IB and once placebo.

iNOS and nNOS = conditions: Tataranno et al., 2015; cited from earlier work

N=C1N[C@H]2[C@H](CS[C@H]2CCCCC(=O)O)N1 [2-IB, 2-iminobiotin]
AUC of the learning test from day 28 until 31 (4VO rat model; 1.1 mg/kg/dose s.c.): 276±85
memory test, time spent in the right quadrant on day 32 (4VO rat model; 1.1 mg/kg/dose s.c. upon reperfusion): 10.7 ± 4.4 s
AUC of the learning test from day 28 until 31 (4VO rat model; 3.3 mg/kg/dose s.c.): 266±64
memory test, time spent in the right quadrant on day 32 (4VO rat model; 3.3 mg/kg/dose s.c. upon reperfusion): 12.7 ± 6.7 s
AUC of the learning test from day 28 until 31 (4VO rat model; 10 mg/kg/dose s.c.): 297±79
memory test, time spent in the right quadrant on day 32 (4VO rat model; 10 mg/kg/dose s.c. upon reperfusion): 12.0 ± 7.3 s
AUC of the learning test from day 28 until 31 (4VO rat model; 30 mg/kg/dose s.c.): 287±89
memory test, time spent in the right quadrant on day 32 (4VO rat model; 30 mg/kg/dose s.c. upon reperfusion): 12.5 ± 6.0 s
learning test day 28 to day 31, time to find the hidden platform vs vehicle-treated rats (4VO rat model; 1.1 (p<0.05), 3.3 (p<0.01) and 30 mg/kg/dose (p<0.05), Dunnett's post hoc): significant difference
LDH/total LDH (IMR-32 cells; 30 ng/ml 2-IB, hypoxia): 0.13±0.02
LDH/total LDH (IMR-32 cells; 30 ng/ml 2-IB, normoxia): 0.11±0.03
LDH/total LDH (IMR-32 cells; 50 ng/ml 2-IB, hypoxia): 0.14±0.04
LDH/total LDH (IMR-32 cells; 50 ng/ml 2-IB, normoxia): 0.14±0.04
LDH/total LDH (IMR-32 cells; 100 ng/ml 2-IB, hypoxia): 0.15±0.03
LDH/total LDH (IMR-32 cells; 100 ng/ml 2-IB, normoxia): 0.10±0.02
LDH/total LDH (IMR-32 cells; 300 ng/ml 2-IB, hypoxia): 0.20±0.06
LDH/total LDH (IMR-32 cells; 300 ng/ml 2-IB, normoxia): 0.10±0.02
reduction of hypoxia-induced cell damage, most effective concentrations (IMR-32 cells; 10-300 ng/ml tested, P<0.05 vs. control): 30 and 50 ng/ml 2-IB were the most effective concentrations
hypoxia-induced ROS production (IMR-32 cell cultures [1]; 30 ng/ml 2-IB post-hypoxic, mild hypothermia (33.5° C.)): attenuated the hypoxia-induced ROS production under hypothermic conditions
hypoxia-induced ROS generation (IMR-32 cell cultures [1]; higher concentrations of 2-IB (above 30 ng/ml), mild hypothermia): less effective in reducing hypoxia-induced ROS generation
neurological damage [2]: reduces the amount of neurological damage
hypoxia-induced LDH release (IMR-32 cell cultures [3]): reduced the hypoxia-induced LDH release even under hypothermia
mean AUC 0-4 hours on average ([4]; 0.6 mg/kg pulses, during the 24-hour dosing period): about 1305 ng·h/mL
mean AUC 4 hours ([4]; after the first infusion): 1170 ng·h/mL
mean AUC 4 hours ([4]; after the last infusion): 1441 ng·h/mL
inhibition of NO biosynthesis (iNOS and nNOS): reversible inhibitor of NO biosynthesis, blocking mainly iNOS and nNOS activity
